Laboratory results: article PMC6151660 (Molecules : A Journal of Synthetic Chemistry and Natural …, 2017)
Values after ≈ are worked out from the molar mass of the structure shown. Like-named read-outs stand apart in the source and are kept apart here.

Legend:
[1] = system: Mycobacterium tuberculosis H37Rv; assay: microbe, parasite or virus in culture; format: cell-based; details: for activity at 1 µM / activity at 50 µM / activity at 100 µM: 120 h
[2] = system: M. tuberculosis H37RvMA pMSP12:GFP; assay: microbe, parasite or virus in culture; format: cell-based; details: Mycobacterium tuberculosis
SH-SY5Y cells = assay: MPP+-induced cytotoxicity in SH-SY5Y cells (neuroprotection); details: 1000 μM MPP+ for 48 h
in vitro = assay: in vitro
Method: Cytotoxicity was evaluated on CHO cells utilizing a standard 3-[4,5-dimethylthiazol-2-yl]-2,5-diphenyl tetrazolium bromide (MTT) assay. The MTT is a yellow tetrazolium salt that is reduced to purple formazan in the presence of living cells. This reduction reaction was used to measure growth and chemosensitivity. The test samples were tested in triplicate on one occasion. Cells were seeded in microtiter plates at a density of 10^5 cells/mL and incubated for 24 h prior to exposure. The test samples were prepared to a 20 mg/mL stock solution in 10% methanol or 10% DMSO and were tested as a suspension if not properly dissolved. Test compounds were stored at −20 °C until use, and administered in volumes of 100 µL to the plated cells. Emetine was used as the reference drug in all experiments. […] Plates were developed after 44 h of exposure to the drug by the addition of a solution of MTT. After four hours, further incubation at 37 °C the supernatant was removed from the cells via suction and DMSO was added to each well to dissolve the reduced dye crystals. […] The amount of formazan produced in wells containing untreated cells only and growth medium only represent 100% survival and 0% survival respectively, and the amount in each treatment well was converted to a survival percentage relative to these two extremes. The IC50 values were obtained from full dose-response curves, using a non-linear dose-response curve fitting analysis via GraphPad Prism v.4 software.

M. tuberculosis = details: cited from earlier work
[3] = system: M. tuberculosis H37Rv:pCHERRY3; assay: microbe, parasite or virus in culture; format: cell-based; details: Mycobacterium tuberculosis
electric eel AChE = system: electric eel AChE; parameters: method as in Joubert et al., 2017 [23]; details: ref Joubert et al., 2017 [23]; cited from earlier work
[4] = molecular target: equine butyrylcholinesterase (BuChE); parameters: method as in Joubert et al., 2017 [23]; details: ref Joubert et al., 2017 [23]; cited from earlier work
[5] = 1 µM compound, day 5, read-out: % M. tuberculosis Growth, Day 5
[6] = 50 µM compound, day 5, read-out: % M. tuberculosis Growth, Day 5
[7] = 100 µM compound, day 5, read-out: % M. tuberculosis Growth, Day 5
[8] = read-out: % M. tuberculosis Growth, Day 5

O=c1ccc2ccc(OCCN3CCN(Cc4ccc(Br)cc4)CC3)cc2o1 [CM11]
activity at 1 µM [1, 5]: 95.2%
activity at 50 µM [1, 6]: 7.05%
activity at 100 µM [1, 7]: 4.46%

Cc1cc(=O)oc2cc(OCc3ccc(Br)cc3)ccc12 [CM2]
activity at 1 µM [1, 5]: 90%
activity at 50 µM [1, 6]: 40.9%
activity at 100 µM [1, 7]: 33.2%

Cc1cc(=O)oc2cc(OCc3ccccc3)ccc12 [CM17]
activity at 1 µM [1, 8]: 97.6%
activity at 50 µM [1, 8]: 28.6%
activity at 100 µM [1, 8]: 19.8%

CO[C@H]1/C=C/O[C@@]2(C)Oc3c(C)c(O)c4c(O)c(c(/C=N/N5CCN(C)CC5)c(O)c4c3C2=O)NC(=O)/C(C)=C\C=C\[C@H](C)[C@H](O)[C@@H](C)[C@@H](O)[C@@H](C)[C@H](OC(C)=O)[C@@H]1C [RIF, rifampicin, reference compound]
inhibition at 6 µM ([1]; read-out: inhibition of bacterial growth): 100%
MIC [2]: 0.0274 µM (≈ 0.0225 µg/mL)

Cc1c(Cl)c(=O)oc2cc(OCc3ccccc3)ccc12 [CM18]
activity at 1 µM [1, 5]: 97.3%
activity at 50 µM [1, 6]: 87.9%
activity at 100 µM [1, 7]: 75.5%

C[n+]1ccc(-c2ccccc2)cc1 [MPP^+, 1-methyl-4-phenyl pyridinium, reference compound]
cell viability after MPP+ without test compound (SH-SY5Y cells): 51.42 ± 3.18%

O=c1cc(C(F)(F)F)c2ccc(OCc3ccc(Br)cc3)cc2o1 [CM5]
activity at 1 µM [1, 5]: 107%
activity at 50 µM [1, 6]: 65%
activity at 100 µM [1, 7]: 56.1%

Cc1cc(=O)oc2cc(OCCN3CCC(Cc4ccccc4)CC3)ccc12 [CM7]
activity at 1 µM [1, 5]: 95.1%
activity at 50 µM [1, 6]: 29.5%
activity at 100 µM [1, 7]: 8.18%

CC[C@H]1CN2CCc3cc(OC)c(OC)cc3[C@@H]2C[C@@H]1C[C@H]1NCCc2cc(OC)c(OC)cc21 [Emetine, reference compound]
CC50 (in vitro; Chinese hamster): 60 nM

COc1ccc2cc(-n3cc(COc4nc(-c5ccccn5)sc4C(N)=O)nn3)c(=O)oc2c1 [Compound 3]
MIC (M. tuberculosis): 6.5 µM (≈ 3.1 µg/mL)

Cc1c(Cl)c(=O)oc2cc(OCCN3CCC(Cc4ccccc4)CC3)ccc12 [CM8]
CC50 at 44 h (in vitro; CHO cells): 33 µM
activity at 1 µM [1, 5]: 93.6%
activity at 50 µM [1, 6]: 5.69%
activity at 100 µM [1, 7]: 4.62%
MIC90 [3]: 40.5 µM (≈ 16.7 µg/mL)
MIC99 [3]: 44.1 µM (≈ 18.2 µg/mL)
IC50 (electric eel AChE): 31.3 µM
MIC90 [2]: 19.6 µM (≈ 8.07 µg/mL)
MIC99 [2]: 25.2 µM (≈ 10.4 µg/mL)
IC50 [4]: 1270 nM
